Results: patent publication EP0325131A2, “Pyrimidine derivatives as performance stimulating agents” (BAYER AG, priority 1988, dated 1989)

System: Weibliche Laborratten
Assay: Rat feeding trial (relative weight gain versus untreated control)
Type: in vivo, Laborratten vom Typ SPF Wistar
Details: female SPF Wistar rats 90-110 g, 100 ppm active substance in feed ad lib, 13 days, relative to untreated control
Description: Weibliche Laborratten 90-110 g schwer vom Typ SPF Wistar (Züchtung Hagemann) werden ad lib mit Standard Rattenfutter, das mit der gewünschten Menge Wirkstoff versetzt ist, gefüttert. Jeder Versuchsansatz wird mit Futter der identischen Charge durchgeführt, so daß Unterschiede in der Zusammensetzung des Futters die Vergleichbarkeit der Ergebnisse nicht beeinträchtigen können.
Die Ratten erhalten Wasser ad lib.
Jeweils 12 Ratten bilden eine Versuchsgruppe und werden mit Futter, das mit der gewünschten Menge Wirkstoff versetzt ist, gefüttert. Eine Kontrollgruppe erhält Futter ohne Wirkstoff. Die Versuchsgruppen werden so zusammengestellt, daß das durchschnittliche Körpergewicht sowie die Streuung in den Körpergewichten der Ratten in jeder Versuchsgruppe gleich ist, so daß eine Vergleichbarkeit der Versuchsgruppen untereinander gewährleistet ist.
Die Tiere werden vor Versuchsbeginn 2 Tage an die neuen Haltungsbedingungen adaptiert, während dieser Zeit wird Futter ohne Wirkstoffzusatz gegeben. Danach erhalten die Tiere 13 Tage lang Futter, das Wirkstoff enthält. Es wird die relative Gewichtszunahme im Verhältnis zur unbehandelten Kontrolle bestimmt.

## CC(C)(C)NCC(O)c1cnc(N)nc1 (stereo not shown) [compound 1, 1-(2-Amino-5-pyrimidinyl)-2-(tert.-butylamino)-ethanol]
  relative Gewichtszunahme: 30%
